Like-named read-outs stand apart in the source and are kept apart here. Blank lines part the entries; values can stand above or below the compound they belong to.
Tests used:
[1] = target: T1, human beta-glucocerebrosidase (GCase, CEREZYME) (Homo sapiens, UniProt P04062, R534H); test: GCase activity fluorometric assay (inhibition, kinetics, pH dependence)
T1 sequence (P04062 40-536 R534H): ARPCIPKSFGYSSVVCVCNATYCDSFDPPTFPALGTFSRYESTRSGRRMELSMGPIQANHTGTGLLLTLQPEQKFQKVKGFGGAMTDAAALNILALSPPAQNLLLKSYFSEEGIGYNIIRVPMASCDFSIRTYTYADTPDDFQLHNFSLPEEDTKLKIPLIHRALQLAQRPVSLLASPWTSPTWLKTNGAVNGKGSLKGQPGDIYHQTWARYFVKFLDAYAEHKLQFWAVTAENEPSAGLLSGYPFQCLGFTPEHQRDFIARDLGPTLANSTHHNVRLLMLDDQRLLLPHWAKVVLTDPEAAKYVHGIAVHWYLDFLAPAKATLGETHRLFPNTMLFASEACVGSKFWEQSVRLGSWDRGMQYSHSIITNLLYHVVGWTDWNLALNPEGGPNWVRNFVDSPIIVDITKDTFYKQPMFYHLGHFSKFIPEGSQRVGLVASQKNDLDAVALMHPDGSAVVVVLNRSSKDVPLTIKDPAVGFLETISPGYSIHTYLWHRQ
Experimental: (§1) Experiments set forth herein and related to the activity and function of GCase in the presence and absence of compounds of the invention were conducted using imiglucerase (CEREZYME, Genzyme) as the GCase. Cellular materials were obtained from fibroblast lysates expressing wild-type GCase and separately from fibroblast lysates derived from Gaucher disease patient cell lines carrying genotypes that encode either the N370S/N370S or F213I/L444P substitutions in GCase.
(§2) Quantitative determinations of enzymatic activity were performed by way of fluorometric assays utilizing the artificial substrate 4-methylumbelliferyl 2-acetamido-2-deoxy-beta-D-glucopyranoside (MUGlc). Reactions were performed at room temperature for 15-30 minutes, as indicated, using equal aliquots of enzyme (25 μL 20 mM Citrate Phosphate pH 5.5, 0.4% Taurodeoxycholate (TC)) and substrate (25 μL 20 mM Citrate Phosphate pH 5.5, MUGlc 1.6 mM). The amount of MU-fluorophore released in each assay was monitored fluorometrically using a spectrophotofluorometer following the addition of a 4-fold (200 μl) excess of 0.1M MAP, pH 10.5.
The activity of GCase was also assayed at several different pH values, including 4.5, 5.0, 5.5, 6.0, 6.5 and 7.0.

wild type (WT) GCase = target: T2, wild type (WT) GCase (Homo sapiens, UniProt P04062, R534H); test: Heat denaturation of GCase at 50° C.; assay type: biochemical; conditions: for increase of the half life of GCase: 20 μM
T2 construct: purchased Genzyme
T2 sequence (P04062 40-536 R534H): T1 sequence (P04062 40-536 R534H)
Experimental: as §1, §2

[2] = system: Gaucher disease fibroblast cell lines harboring the N370S/N370S missense mutation; test: Immunohistochemical fluorescence labeling, colocalization of GCase and Lamp-1; assay type: cell-based, human; conditions: N370S/N370S fibroblasts
Experimental: Immunohistochemical fluorescence labeling of GD fibroblast cell lines harboring the N370S/N370S missense mutation were performed with rabbit polyclonal anti-GCase and mouse anti-Lamp-1 (lysosomal membrane associated protein). Cell nuclear staining was performed with 4′-6′-diamidino-2-phenylindole. […] (FIG. 6A, staining with anti-GCase in the presence of ABX; FIG. 6B, staining with anti-Lamp-1 in the presence of ABX; FIG. 6C, merger of FIGS. 6A and 6B; FIG. 6D, staining with anti-GCase in the presence of IFG; FIG. 6E, staining with anti-Lamp-1 in the presence of IFG; FIG. 6F, merger of FIGS. 6D and 6E; FIG. 6G, staining with anti-GCase in the absence of drug; FIG. 6H, staining with anti-Lamp-1 in the absence of drug; FIG. 6I, merger of FIGS. 6G and 6H.)
Immunohistochemical fluorescence labeling of Gaucher disease fibroblast cell lines harboring the N370S/N370S missense mutation was performed with rabbit polyclonal anti-GCase and mouse anti-Lamp-1 (lysosomal membrane associated protein). Cell nuclear staining was performed with 4′-6′-diamidino-2-phenylindole. […] Restored activity and trafficking of mutant GCase are the ultimate goals of a pharmacological chaperone-based therapeutic strategy.

increase of the half life of GCase (wild type (WT) GCase): more than three-fold
SMILES: OC[C@H]1CNC[C@@H](O)[C@@H]1O [isofagomine]

increase of the half life of GCase (wild type (WT) GCase): more than three-fold
increase in GCase activity remaining after incubation (wild type (WT) GCase; highest concentration of ambroxol, vs DMSO): more than three-fold
inhibition of GCase under acidic conditions ([1]; 25 μM ambroxol, pH 4.5, 5.0, 5.5, 6.0, 6.5 and 7.0 assayed): only marginally inhibited
mode of inhibition of GCase ([1]; kinetic analysis): competitive inhibitor
SMILES: Nc1c(Br)cc(Br)cc1CN[C@H]1CC[C@H](O)CC1 [Ambroxol, trans-4-(2-amino-3,5-dibromobenzylamino) cyclohexanol]
Colocalization of GCase and Lamp-1 at the lysosome (rescue of mutant GCase trafficking) [2]: Colocalization of GCase and Lamp-1 occurs at the lysosome

Second part, the compound before the results:

SMILES: Nc1ccc(Br)cc1Br [Dibromoaniline]
IC50 ([1]; 0.3 mM MUbGlc as the substrate): Dibromoaniline (NI −1000)

SMILES: CN(Cc1cc(Br)cc(Br)c1N)C1CCCCC1 [Bromhexine, 2-amino-3,5-dibromo-N-cyclohexyl-N-methylbenzenemethanamine]
IC50 [1]: 60 µM
inhibitory activity compared with ambroxol ([1]; Table 2 IC50 values): two fold reduction

SMILES: CCC(=O)Oc1c(Br)cc(Br)cc1Br [Tribromophenyl Propanoate]
IC50 [1]: > 1000 µM

SMILES: O=C(Nc1ccc(Br)cc1Br)c1ccccc1 [Dibromophenyl Benzamide]
IC50 [1]: > 1000 µM

SMILES: Nc1c(Br)cc(Br)cc1Br [Tribromoaniline]
IC50 ([1]; 0.3 mM MUbGlc as the substrate): Tribromoaniline (NI −1000)

Source: patent US10653645B2, “Method for enhancing folding and transport of misfolded glucocerebrosidase” (The Hospital for Sick Children, priority 2007, dated 2020)
